Consider six compounds from patent publication US5208240A, “8-substituted purines as selective adenosine receptor agents” (Merrell Dow Pharmaceuticals Inc., priority 1991, dated 1993).

pIC50: −log10 of the molar value.

One test has as its target A1-adenosine receptor. Description: Adenosine A1 receptor binding (method of Goodman et al.). The procedure:
(§1) IC50 values for A1 -adenosine receptor binding is determined according to the method of Goodman et al. [Mol. Pharmacol. 21:329-35, 1982]. IC50 values for A2 -adenosine receptor binding is determined according to the method of Bruns et al. [Mol. Pharmacol. 29:331-46, 1986].

The target in another test is T1, A2-adenosine receptor (Rattus norvegicus, UniProt P30543).
T1 construct: from tissue
Put plainly: Adenosine A2 receptor binding (method of Bruns et al.). The procedure: as §1

T1 sequence (P30543 whole entry): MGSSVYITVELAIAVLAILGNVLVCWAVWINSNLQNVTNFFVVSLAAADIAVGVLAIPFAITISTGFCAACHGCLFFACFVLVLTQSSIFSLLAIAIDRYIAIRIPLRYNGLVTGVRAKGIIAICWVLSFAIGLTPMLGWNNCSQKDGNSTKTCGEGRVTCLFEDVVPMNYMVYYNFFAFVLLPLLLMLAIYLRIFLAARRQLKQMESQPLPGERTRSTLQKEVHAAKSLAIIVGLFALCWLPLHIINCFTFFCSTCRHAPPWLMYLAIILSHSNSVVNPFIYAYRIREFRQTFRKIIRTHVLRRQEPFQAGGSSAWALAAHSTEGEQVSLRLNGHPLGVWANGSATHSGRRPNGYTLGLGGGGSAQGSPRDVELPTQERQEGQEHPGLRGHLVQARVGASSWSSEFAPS

With `CCCn1c(=O)c2nc(C(C)Cc3ccc(OCC(=O)NCCN)cc3)[nH]c2n(CCC)c1=O` (single isomer, unassigned; (+)) [Compound 101993, (+)-N (2-Aminoethyl)-2-[4-[2-(2,3,6,9-tetrahydro-1,3-dipropyl-2,6-dioxo-1H-purin-8-yl)propyl]phenoxy]-acetamide], the pIC50 on A1-adenosine receptor was 7.22; at A2-adenosine receptor, 5.74.

Turning to `CCCn1c(=O)c2nc(C(C)Cc3ccc(OCC(=O)NCCN)cc3)[nH]c2n(CCC)c1=O` (single isomer, unassigned; (-)) [Compound 100991, (-)-N-(2-Aminoethyl)-2-[4-[2-(2,3,6,9-tetrahydro-1,3-dipropyl-2,6-dioxo-1H-purin-8-yl)propyl]phenoxy]-acetamide], the pIC50 is 8.00 on A1-adenosine receptor and 6.52 at A2-adenosine receptor.

As for `CCCn1c(=O)c2nc(C(C)Cc3ccc(OCC(=O)NCCN)cc3)[nH]c2n(CCC)c1=O` (stereo not drawn) [Compound 101345, N-(2-Aminoethyl)-2-[4-[2-(2,3,6,9-tetrahydro-1,3-dipropyl-2,6-dioxo-1H-purin-8-yl)propyl]phenoxy]-acetamide], the pIC50 at A1-adenosine receptor was 7.85; at A2-adenosine receptor it was 7.44.

With `CCCn1c(=O)c2nc(C(CC)c3ccc(OCC(=O)O)cc3)[nH]c2n(CCC)c1=O` (stereo not drawn) [Compound 101673, 2-[4-[1-(2,3,6,9-Tetrahydro-1,3-dipropyl-2,6-dioxo-1H-purin-8-yl)propyl]phenoxy]acetic acid], the pIC50 at A1-adenosine receptor was 5.93; at A2-adenosine receptor it was less than 5.00.

On to `CCCn1c(=O)c2nc(C(C)Cc3ccc(OCC(=O)O)cc3)[nH]c2n(CCC)c1=O` (stereo not drawn) [Compound 101699, 2-[4-[2-(2,3,6,9-Tetrahydro-1,3-dipropyl-2,6-dioxo-1H-purin-8-yl)propyl]phenoxy]acetic acid], for which the results for the pIC50 at A1-adenosine receptor and at A2-adenosine receptor were 6.49 and 5.24, respectively.

With `CCCn1c(=O)c2nc(C(CC)c3ccc(OCC(=O)NCCN)cc3)[nH]c2n(CCC)c1=O` (stereo not drawn) [Compound 102130, N-(2Aminoethyl)-2-[4-[1-(2,3,6,9-tetrahydro-1,3-dipropyl-2,6-dioxo-1H-purin-8-yl)propyl]phenoxy]-acetamide], the pIC50 on A1-adenosine receptor was 8.36; on A2-adenosine receptor it was 7.22.
